The values that follow come from ChEMBL document CHEMBL1127097, “Tetrazole amino acids as competitive NMDA antagonists” (Bioorg Med Chem Lett, 1993).

In test [1] the target is Glutamate [NMDA] receptor. As to the kind of experiment: Tested in vitro for the affinity against NMDA receptor by examining its ability to inhibit [3H]-CGS-19,755 binding. Type of test: protein-complex assay.
The subject of test [2] is Glutamate [NMDA] receptor. As to the kind of experiment: Tested in vitro for the affinity against NMDA receptor in a cortical wedge assay; A- Compound acted as […]. It is filed as functional.
A further test deals with Mus musculus. In words: Minimum effective dose tested by ip administration for its ability to block NMDA induced lethality in mice. It is filed as functional. As to conditions: read-out: MED.
The target in test [3] is Glutamate [NMDA] receptor. In words: Tested in vitro for the affinity against NMDA receptor in a cortical wedge assay. Type of test: protein-complex assay.
Test [4] has as its system Glutamate [NMDA] receptor. As to the kind of experiment: Tested in vitro for the affinity against NMDA receptor in a cortical wedge assay; A- compound acts as antagonist. It is filed as functional.

As for `N[C@@H](CCc1nnn[nH]1)C(=O)O`, the half-maximal inhibitory concentration (IC50) (usually the point on the concentration scale where inhibition reaches its midpoint) in test [1] is 1600 nM; in test [2], “Agonist”. Moreover, the minimal effective dose in the test with Mus musculus was more than 160 mg/kg.
Turning to `O=C(O)C1CN(CCCc2nnn[nH]2)CCN1` (centres undefined), the half-inhibitory concentration (IC50) in test [1] turned out to be 3150 nM; in test [3], 16300 nM. In addition, in the test with Mus musculus, the minimal effective dose was 40 mg/kg.
For `O=C(O)C1CN(Cc2nn[nH]n2)CCN1` (centres undefined), in that order: 1670 nM, 8200 nM and more than 80 mg/kg.
On to `O=C(O)C1CN(CCc2nnn[nH]2)CCN1` (centres undefined), for which the IC50 was 781 nM in test [1] and 4700 nM in test [3]. Further, the minimal effective dose with Mus musculus was 160 mg/kg.
Turning to `N[C@H](Cc1nnn[nH]1)C(=O)O`, the 50% inhibitory concentration (IC50) in test [1] was 685 nM; in test [3], more than 100000 nM. The minimal effective dose in the test with Mus musculus was more than 160 mg/kg.
On to `N[C@H](CCc1nnn[nH]1)C(=O)O`, for which the IC50 in test [1] came to 925 nM; in test [3], 31600 nM. In addition, in the test on Mus musculus, the minimal effective dose was more than 160 mg/kg.
For `O=C(O)[C@H]1C[C@@H](Cc2nnn[nH]2)CCN1` the same measures were 107 nM, 4200 nM and 5 mg/kg.
For `O=C(O)C1CN(CCCP(=O)(O)O)CCN1` (centres undefined) the same measures were 220 nM, 600 nM and 2.5 mg/kg.
On to `N[C@H](CCCCCP(=O)(O)O)C(=O)O`, for which the concentration for half-maximal inhibition (IC50) came out at 461 nM in test [1] and 11100 nM in test [3]. Moreover, the minimal effective dose with Mus musculus was found to be 160 mg/kg.
The compound `O=C(O)C1CN(CCCCc2nnn[nH]2)CCN1` (centres undefined) gave a 50% inhibitory concentration (IC50) in test [1] of more than 10000 nM. Also, the minimal effective dose with Mus musculus is more than 80 mg/kg.
Consider `N[C@@H](Cc1nnn[nH]1)C(=O)O`, for which the results for the IC50 in test [1] and in test [3] were 639 nM and more than 100000 nM, respectively. The minimal effective dose in the test with Mus musculus is more than 160 mg/kg.
For `NC(CCCCCc1nnn[nH]1)C(=O)O` (centres undefined), in that order: more than 10000 nM, more than 100000 nM and more than 160 mg/kg.
With `Cl.NC(CCCc1nnn[nH]1)C(=O)O` (centres undefined), the half-inhibitory concentration (IC50) result is “Antagonist” in test [4] and 1050 nM in test [1]. In addition, the minimal effective dose with Mus musculus is more than 160 mg/kg.
On to `Cl.NC(CCCCc1nnn[nH]1)C(=O)O` (centres undefined), for which the IC50 result in test [4] was “Antagonist”; in test [1], 10000 nM. In addition, the minimal effective dose in the test with Mus musculus is more than 160 mg/kg.
Consider `Cl.NC(CCCCCCc1nnn[nH]1)C(=O)O` (centres undefined), for which the results for the IC50 in test [1] and in test [3] were more than 10000 nM and more than 100000 nM, respectively. Further, in the test on Mus musculus, the minimal effective dose is more than 160 mg/kg.
As to `N[C@H](CCCP(=O)(O)O)C(=O)O`, the results for the concentration for half-maximal inhibition (IC50) in test [1] and in test [3] were 177 nM and 3700 nM, respectively. Further, the minimal effective dose in the test with Mus musculus stood at 160 mg/kg.
As to `O=C(O)[C@@H]1C[C@H](CP(=O)(O)O)CCN1` (single isomer, unassigned) [SELFOTEL], the results for the IC50 in test [1] and in test [3] were 54 nM and 1600 nM, respectively.
